The values that follow come from US8420670B2 (Abbott Laboratories, priority 2007, dated 2013).

Experiment [1] concerns the target T1, human GlyT1c transporter (Homo sapiens, UniProt P48067).
T1 construct: expressed in transfected cells; host or cells: recombinant hGlyT1-expressing cells
T1 sequence (P48067 1-706): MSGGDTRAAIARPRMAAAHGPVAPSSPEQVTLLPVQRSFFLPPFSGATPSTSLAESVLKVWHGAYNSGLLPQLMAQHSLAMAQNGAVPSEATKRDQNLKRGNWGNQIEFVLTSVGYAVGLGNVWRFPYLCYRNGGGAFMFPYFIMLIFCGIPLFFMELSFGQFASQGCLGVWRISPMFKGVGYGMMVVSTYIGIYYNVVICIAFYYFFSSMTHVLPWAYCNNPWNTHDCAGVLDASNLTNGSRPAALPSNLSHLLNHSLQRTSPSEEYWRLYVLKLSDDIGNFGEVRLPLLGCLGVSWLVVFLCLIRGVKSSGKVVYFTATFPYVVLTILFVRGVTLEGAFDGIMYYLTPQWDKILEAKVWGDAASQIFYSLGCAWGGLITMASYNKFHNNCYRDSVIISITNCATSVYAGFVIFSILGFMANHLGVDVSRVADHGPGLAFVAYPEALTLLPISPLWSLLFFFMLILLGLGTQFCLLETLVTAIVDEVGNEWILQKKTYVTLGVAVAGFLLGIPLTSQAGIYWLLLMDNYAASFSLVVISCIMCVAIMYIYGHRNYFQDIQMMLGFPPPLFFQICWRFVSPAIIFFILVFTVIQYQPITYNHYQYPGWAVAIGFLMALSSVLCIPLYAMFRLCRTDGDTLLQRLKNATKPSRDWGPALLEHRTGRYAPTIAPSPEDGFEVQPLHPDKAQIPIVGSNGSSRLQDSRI
The experiment can be described thus: [3H]-(R)-NPTS radioligand binding assay using recombinant hGlyT1 expressing cell membranes. The settings on record: 0.5 nM [3H]-(R)-NPTS, apparent Ki via Cheng-Prusoff, read-out: [3H]-(R)-NPTS bindung Ki. The method, boiled down:
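Membranes expressing human GlyT1c (50 μg/ml protein) were incubated with 0.5 nM [3H]-(R)-NPTS in pH 7.5 HEPES/NaCl buffer with 1% DMSO for 1 h at room temperature, then filtered. Non-specific binding was defined with 10 μM Org24598, and IC50 values were converted to apparent Ki by Cheng-Prusoff.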

Experiment [2] deals with T2, Human GlyT1c (Homo sapiens, UniProt P48067).
T2 construct: expressed in transfected cells; host or cells: CHO (hGlyT1c_5_CHO clone)
T2 sequence (P48067 1-706): T1 sequence (P48067 1-706)
The experiment can be described thus: Glycine uptake in recombinant hGlyT1 expressing cells. The format is cell-based. The settings on record: hGlyT1c_5_CHO cells; [3H]-glycine uptake, 60-120 min. The method, boiled down: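 Recombinant hGlyT1c CHO cells were washed in HBSS with 5 mM L-alanine, then given inhibitor and [3H]-glycine. Uptake was counted continuously by solid-phase scintillation for up to 3 h, with nonspecific uptake defined by 10 μM Org24598. IC50 came from four-parameter logistic fits over the linear 60–120 min range.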

Take `COc1cccc2c(NC(CN3CCOCC3)c3ccccc3)cc(C)nc12` (stereo not drawn) [Example 62, (8-Methoxy-2-methylquinolin-4-yl)-(2-morpholin-4-yl-1-phenyl)-ethylamine]: the Ki in experiment [1] is at most 10 µM. In addition, the IC50 in experiment [2] is at most 10 µM.
For the compound `COc1cccc2c(NC(CN3CCCCC3)c3ccccc3)cc(C)nc12` (stereo not drawn) [Example 63, (8-Methoxy-2-methyl-quinolin-4-yl)-(1-phenyl-2-piperidin-1-yl)-ethylamine], in experiment [1], the Ki is at most 10 µM. In experiment [2], the IC50 is at most 100 µM.
For `COc1cccc2c(NC(c3ccccc3)c3ccc(Cl)cc3)cc(C)nc12` (stereo not drawn) [Example 64, [(4-Chlorophenyl)-phenylmethyl]-(8-methoxy-2-methylquinolin-4-yl)-amine], in that order: at most 10 µM and at most 10 µM.
On the same counts, the results for `COc1cccc2c(NC(CN3CCOCC3)c3ccc(Cl)cc3)cc(C)nc12` (stereo not drawn) [Example 65, [1-(4-Chlorophenyl)-2-morpholin-4-yl-ethyl]-(8-methoxy-2-methylquinolin-4-yl)-amine] are at most 10 µM and at most 10 µM.
On the same counts, the results for `COc1cccc2c(NC(CN3CCCCC3)c3ccc(Cl)cc3)cc(C)nc12` (stereo not drawn) [Example 66, [1-(4-Chlorophenyl)-2-piperidin-1-yl-ethyl]-(8-methoxy-2-methylquinolin-4-yl)-amine] are at most 10 µM and at most 10 µM.
For the compound `COc1cccc2c(NC(CN3CCCC3)c3ccc(Cl)cc3)cc(C)nc12` (stereo not drawn) [Example 67, [1-(4-Chloro-phenyl)-2-pyrrolidin-1-yl-ethyl]-(8-methoxy-2-methyl-quinolin-4-yl)-amine], the Ki in experiment [1] was at most 1 µM. Moreover, in experiment [2], the IC50 is at most 10 µM.
For `COc1cccc2c(NC(CN3CCCC3)c3ccccc3)cc(C)nc12` (stereo not drawn) [Example 69, (8-Methoxy-2-methylquinolin-4-yl)-(1-phenyl-2-pyrrolidin-1-ylethyl)-amine], in that order: at most 10 µM and at most 10 µM.
For `COc1cccc2c(NC(c3ccc(Cl)cc3)c3nccn3C)cc(C)nc12` (stereo not drawn) [Example 70, [(4-Chlorophenyl)-(1-methyl-1H-imidazol-2-yl)-methyl]-(8-methoxy-2-methylquinoline-4-yl)amine], in experiment [1], the Ki is at most 10 µM. For the same compound, in experiment [2], the IC50 is at most 100 µM.
For `COc1cccc2c(NC(CN(C)C)c3ccccc3)cc(C)nc12` (stereo not drawn) [Example 71, N*1*-(8-Methoxy-2-methylquinolin-4-yl)-N*2*,N*2*-dimethyl-1-phenylethane-1,2-diamine], in that order: at most 0.1 µM and at most 1 µM.
On the same counts, the results for `COc1cccc2c(NC(c3ccc(Cl)cc3)C3CC3)cc(C)nc12` (stereo not drawn) [Example 72, [(4-Chlorophenyl)-cyclopropylmethyl]-(8-methoxy-2-methylquinolin-4-yl)-amine] are at most 1 µM and at most 10 µM.
Regarding `COc1cccc2c(NC(c3ccncc3)c3ccc(Cl)cc3)cc(C)nc12` (stereo not drawn) [Example 73, [(4-Chlorophenyl)-pyridin-4-ylmethyl]-(8-methoxy-2-methylquinolin-4-yl)-amine], the Ki in experiment [1] was at most 1 µM. The IC50 in experiment [2] was at most 1 µM.
For `COc1cccc2c(NC(C(N)=O)c3ccccc3)cc(C)nc12` (stereo not drawn) [Example 74, 2-(8-Methoxy-2-methylquinolin-4-ylamino)-2-phenylacetamide], the Ki in experiment [1] is at most 10 µM. Also, in experiment [2], the IC50 is at most 1000 µM.
For `COc1cccc2c(NC(CN)c3ccccc3)cc(C)nc12` (stereo not drawn) [Example 75, N*1*-(8-Methoxy-2-methylquinolin-4-yl)-1-phenylethane-1,2-diamine], in that order: at most 1 µM and at most 1 µM.
Regarding `COc1cccc2c(N[C@H](CN(C)C)c3ccc(Cl)cc3)cc(C)nc12` [Example 76, (S)-1-(4-Chlorophenyl)-N*1*-(8-methoxy-2-methylquinolin-4-yl)-N*2*,N*2*-dimethylethane-1,2-diamine], in experiment [1], the Ki is at most 0.001 µM. Further, the IC50 in experiment [2] was at most 0.1 µM.
On the same counts, the results for `COc1cccc2c(N[C@@H](CN(C)C)c3ccc(Cl)cc3)cc(C)nc12` [Example 77, (R)-1-(4-Chlorphenyl)-N*1*-(8-methoxy-2-methylquinoline-4-yl)-N*2*,N*2*-dimethylethane-1,2-diamin] are at most 1 µM and at most 10 µM.
For the compound `COc1cccc2c(NC(CNCc3ccccc3)c3ccccc3)cc(C)nc12` (stereo not drawn) [Example 78, N*2*-Benzyl-N*1*-(8-methoxy-2-methylquinolin-4-yl)-1-phenylethane-1,2-diamine], in experiment [1], the Ki was at most 1 µM. For the same compound, in experiment [2], the IC50 is at most 10 µM.
For the compound `COc1cccc2c(NC(CNC(C)C)c3ccccc3)cc(C)nc12` (stereo not drawn) [Example 79, N*2*-Isopropyl-N*1*-(8-methoxy-2-methylquinolin-4-yl)-1-phenylethane-1,2-diamine], the Ki in experiment [1] was at most 10 µM. In addition, the IC50 in experiment [2] is at most 10 µM.
On to `COc1cccc2c(NCc3ccc(C(F)(F)F)c(Cl)c3)cc(C)nc12` [Example 80, (3-Chloro-4-trifluoromethylbenzyl)-(8-methoxy-2-methylquinolin-4-yl)-amine], for which the Ki in experiment [1] was at most 1 µM. In addition, the IC50 in experiment [2] was at most 1 µM.
On to `Cc1cc(NCc2ccc(Cl)c(Cl)c2)c2cccc(Cl)c2n1` [Example 81, (8-Chlor-2-methylquinolin-4-yl)-(3,4-dichlorobenzyl)-amine], for which, in experiment [1], the Ki is at most 0.1 µM. Also, the IC50 in experiment [2] is at most 1 µM.
For `Cc1cc(NCc2ccc(Cl)c(Cl)c2)c2cccc(F)c2n1` [Example 82, (3,4-Dichlorobenzyl)-(8-fluoro-2-methylquinolin-4-yl)-amine], the Ki in experiment [1] is at most 1 µM. In addition, in experiment [2], the IC50 is at most 1 µM.
As to `CSc1cccc2c(NCc3ccc(Cl)cc3)cc(C)nc12` [Example 83, (4-Chlorobenzyl)-(2-methyl-8-methylsulfanylquinolin-4-yl)-amine], the Ki in experiment [1] is at most 1 µM. Further, the IC50 in experiment [2] was at most 1 µM.
For `COc1cccc2c(NCc3ccc(Cl)cc3)cc(C)nc12` [Example 84, (4-Chlorobenzyl)-(2-methyl-8-methoxyquinolin-4-yl)amine], the Ki in experiment [1] was at most 1 µM. In experiment [2], the IC50 was at most 1 µM.
For `Cc1cc(NCc2ccc(F)c(F)c2)c2cccc(C)c2n1` [Example 85, (3,4-Difluoro-benzyl)-(2,8-dimethyl-quinolin-4-yl)-amine], the Ki in experiment [1] was at most 1 µM. Also, the IC50 in experiment [2] is at most 1 µM.
For the compound `CSc1cccc2c(NCc3ccc(F)c(F)c3)cc(C)nc12` [Example 86, (3,4-Difluorobenzyl)-(2-methyl-8-methylsulfanylquinolin-4-yl)-amine], the Ki in experiment [1] was at most 1 µM. Moreover, the IC50 in experiment [2] was at most 1 µM.
Take `Cc1cc(NCc2ccc(Cl)c(Cl)c2)c2cccc(C)c2n1` [Example 87, (3,4-Dichlorobenzyl)-(2-methyl-8-methylquinolin-4-yl)-amine]: in experiment [1], the Ki was at most 0.1 µM. Moreover, in experiment [2], the IC50 was at most 0.1 µM.
For the compound `CSc1cccc2c(NCc3ccc(Cl)c(Cl)c3)cc(C)nc12` [Example 88, (3,4-Dichlorobenzyl)-(2-methyl-8-methylsulfanylquinolin-4-yl)-amine], in experiment [1], the Ki is at most 0.1 µM. Also, the IC50 in experiment [2] was at most 0.1 µM.
Take `Cc1cc(NCc2ccc(Cl)c(Cl)c2)c2ccccc2n1` [Example 89, (3,4-Dichlorobenzyl)-(2-methylquinolin-4-yl)-amine]: in experiment [1], the Ki is at most 0.1 µM. In experiment [2], the 50% inhibitory concentration (IC50) was at most 1 µM.

Broadly, the IC50 is the concentration at which inhibition is half-maximal.
